Measured values reported in patent publication US20150141381A1, “TETRACYCLINE COMPOUNDS HAVING TARGET THERAPEUTIC ACTIVITIES” (Paratek Pharmaceuticals, Inc., priority 2001, published 2015).
Like-named read-outs stand apart in the source and are kept apart here.

Tests used:
S. aureus RN450 = assay: In Vitro Anti-Bacterial Activity Assay (MIC), gram positive; type: cell-based; details: for MIC: Staphylococcus aureus, RN450, 18 h
E. coli mL308 225 = assay: In Vitro Anti-Bacterial Activity Assay (MIC), gram negative; type: cell-based; details: for MIC: Escherichia coli, ML308225, 18 h
[1] = MIC class, Table 3, read-out: Antibiotic Activity Gram +
[2] = MIC class, Table 3, read-out: Antibiotic Activity Gram −
[3] = MIC class, Table 3 (Continued), read-out: Gram+ activity
[4] = MIC class, Table 3 (Continued), read-out: Gram− activity
[5] = gram positive bacteria, read-out: Antibiotic Activity Gram + (MIC)
[6] = gram negative bacteria, read-out: Antibiotic Activity Gram − (MIC)
[7] = read-out: Antibiotic Activity Gram − (MIC)

Row | Compound | MIC (S. aureus RN450; [1]) | MIC (E. coli mL308 225; [2]) | MIC (S. aureus RN450; [5]) | MIC (E. coli mL308 225; [6]) | further results
1 | Cc1noc(C)c1S(=O)(=O)NCc1ccc(O)c2c1C[C@H]1C[C@H]3[C@H](N(C)C)C(O)=C(C(N)=O)C(=O)[C@@]3(O)C(O)=C1C2=O [IG] | < 4 µg/mL | > 4 µg/mL | – | – | –
2 | CCc1ccc(O)c2c1C[C@H]1C[C@H]3[C@@H](N(C)C)C(O)=C(C(N)=O)C(=O)[C@@]3(O)C(O)=C1C2=O [DM] | < 4 µg/mL | > 4 µg/mL | – | – | –
3 | CN(C)c1cc(F)c(O)c2c1C[C@H]1C[C@H]3C(N(C)C)C(O)=C(C(N)=O)C(=O)[C@@]3(O)C(O)=C1C2=O (stereo partly shown) [KZ] | < 4 µg/mL | < 4 µg/mL | – | – | –
4 | Cc1ccc(/C=C/c2ccc(O)c3c2C[C@H]2C[C@H]4[C@H](N(C)C)C(O)=C(C(N)=O)C(=O)[C@@]4(O)C(O)=C2C3=O)cc1 [drawing 3339] | – | – | – | – | MIC (S. aureus RN450; [3]): < 4 µg/mL; MIC (E. coli mL308 225; [4]): < 4 µg/mL
5 | CN(C)[C@@H]1C(O)=C(C(N)=O)C(=O)[C@@]2(O)C(O)=C3C(=O)c4c(O)ccc(C#Cc5cccc(O)c5)c4C[C@H]3C[C@@H]12 [BI] | < 4 µg/mL | > 4 µg/mL | – | – | –
6 | CN(C)[C@@H]1C(O)=C(C(N)=O)C(=O)[C@@]2(O)C(O)=C3C(=O)c4c(ccc(NC5CCN(Cc6ccccc6)CC5)c4O)C[C@H]3C[C@@H]12 | – | – | > 4 µg/mL | > 4 µg/mL | –
7 | CC(=O)Cc1cc(N(C)C)c2c(c1O)C(=O)C1=C(O)[C@]3(O)C(=O)C(C(N)=O)=C(O)[C@@H](N(C)C)[C@@H]3C[C@@H]1C2 | – | – | < 4 µg/mL | > 4 µg/mL | –
8 | CCCC#Cc1ccc(O)c2c1C[C@H]1C[C@H]3[C@H](N(C)C)C(O)=C(C(N)=O)C(=O)[C@@]3(O)C(O)=C1C2=O [DK] | > 4 µg/mL | > 4 µg/mL | – | – | –
9 | CN(C)[C@@H]1C(O)=C(C(N)=O)C(=O)[C@@]2(O)C(O)=C3C(=O)c4c(O)ccc(-c5ccc(CNc6cccnc6)cc5)c4C[C@H]3C[C@@H]12 | – | – | < 4 µg/mL | > 4 µg/mL | –
10 | COc1ccc(CN2CCOCC2)cc1-c1ccc(O)c2c1C[C@H]1C[C@H]3[C@H](N(C)C)C(O)=C(C(N)=O)C(=O)[C@@]3(O)C(O)=C1C2=O [BV] | < 4 µg/mL | > 4 µg/mL | – | – | –
11 | CN(C)c1ccc(O)c2c1C[C@H]1C[C@H]3[C@H]([N+](C)(C)C)C(O)=C(C(N)=O)C(=O)[C@@]3(O)C(O)=C1C2=O | – | – | < 4 µg/mL | > 4 µg/mL | –
12 | CN(C)[C@@H]1C(O)=C(C(N)=O)C(=O)[C@@]2(O)C(O)=C3C(=O)c4c(ccc(NC(=O)N5CCOCC5)c4O)C[C@H]3C[C@@H]12 [IL] | > 4 µg/mL | > 4 µg/mL | – | – | –
13 | CN(C)[C@@H]1C(O)=C(C(N)=O)C(=O)[C@@]2(O)C(O)=C3C(=O)c4c(O)ccc(CNC(=O)OCC(C)(C)C)c4C[C@H]3C[C@@H]12 [FU] | < 4 µg/mL | > 4 µg/mL | – | – | –
14 | CCCc1cc(N(C)C)c2c(c1O)C(=O)C1=C(O)[C@]3(O)C(=O)C(C(N)=O)=C(O)[C@@H](N(C)C)[C@@H]3C[C@@H]1C2 | – | – | < 4 µg/mL | > 4 µg/mL | –
15 | COc1cc(C/C=C\c2ccc(O)c3c2C[C@H]2C[C@H]4[C@H](N(C)C)C(O)=C(C(N)=O)C(=O)[C@@]4(O)C(O)=C2C3=O)ccc1O [BW] | < 4 µg/mL | > 4 µg/mL | – | – | –
16 | CN(C)C(=O)C(=O)c1ccc(O)c2c1C[C@H]1C[C@H]3C(N(C)C)C(O)=C(C(N)=O)C(=O)[C@@]3(O)C(O)=C1C2=O (stereo partly shown) [MR] | < 4 µg/mL | < 4 µg/mL | – | – | –
17 | CN(C)[C@@H]1C(O)=C(C(N)=O)C(=O)[C@@]2(O)C(O)=C3C(=O)c4c(O)ccc(-c5ccc(CN6CCCC6)cc5)c4C[C@H]3C[C@@H]12 [JZ] | < 4 µg/mL | < 4 µg/mL | – | – | –
18 | CN(C)CC(=O)NCc1cc(N(C)C)c2c(c1O)C(=O)C1=C(O)[C@]3(O)C(=O)C(C(N)=O)=C(O)[C@@H](N(C)C)[C@@H]3C[C@@H]1C2 | – | – | < 4 µg/mL | > 4 µg/mL | –
19 | CN(C)c1cc(N2CCCCC2)c(O)c2c1C[C@H]1C[C@H]3[C@H](N(C)C)C(O)=C(C(N)=O)C(=O)[C@@]3(O)C(O)=C1C2=O [NK] | > 4 µg/mL | > 4 µg/mL | – | – | –
20 | C[C@H]1c2cccc(O)c2C(=O)C2=C(O)[C@]3(O)C(=O)C(C(N)=O)=C(O)[C@@H](N(C)C)[C@@H]3[C@@H](O)[C@@H]21 [drawing 3668] | – | – | – | – | Antibiotic Activity Gram + (MIC) (S. aureus RN450; gram positive bacteria): ** (compounds with MIC less than or equal to 4 μg/ml are indicated with **); Antibiotic Activity Gram − (MIC) (E. coli mL308 225; gram negative bacteria): * (compounds with an MIC of greater than 4 μg/ml are indicated with *)
21 | CN(C)[C@@H]1C(O)=C(C(N)=O)C(=O)[C@@]2(O)C(O)=C3C(=O)c4c(O)ccc(C#CC5=CCCCC5)c4C[C@H]3C[C@@H]12 | – | – | – | – | MIC (S. aureus RN450; [3]): < 4 µg/mL; MIC (E. coli mL308 225; [4]): < 4 µg/mL
22 | CN(C)c1cc(NS(=O)(=O)c2ccccc2)c(O)c2c1C[C@H]1C[C@H]3[C@H](N(C)C)C(O)=C(C(N)=O)C(=O)[C@@]3(O)C(O)=C1C2=O [AE] | < 4 µg/mL | < 4 µg/mL | – | – | –
23 | CN(C)[C@@H]1C(O)=C(C(N)=O)C(=O)[C@@]2(O)C(O)=C3C(=O)c4c(O)c(C(C)(C)C)cc(C(N)C(=O)O)c4C[C@H]3C[C@@H]12 (stereo partly shown) [FS] | > 4 µg/mL | > 4 µg/mL | – | – | –

Row | Compound | MIC (S. aureus RN450; [1]) | MIC (E. coli mL308 225; [2]) | MIC (S. aureus RN450; [5]) | MIC (E. coli mL308 225; [6]) | further results
24 | CC(=O)Nc1ccc(C#Cc2ccc(O)c3c2C[C@H]2C[C@H]4[C@H](N(C)C)C(O)=C(C(N)=O)C(=O)[C@@]4(O)C(O)=C2C3=O)cc1 [CO] | < 4 µg/mL | > 4 µg/mL | – | – | –
25 | CN(C)[C@@H]1C(O)=C(C(N)=O)C(=O)[C@@]2(O)C(O)=C3C(=O)c4c(O)ccc(-c5ccc(CN6CCOCC6)c6ccccc56)c4C[C@H]3C[C@@H]12 | – | – | < 4 µg/mL | < 4 µg/mL | –
26 | CN(C)C1C(O)=C(C(N)=O)C(=O)[C@@]2(O)C(O)=C3C(=O)c4c(O)c(CN)cc(-c5ccc(C(C)(C)C)cc5)c4C[C@H]3C[C@@H]12 (stereo partly shown) [HJ] | < 4 µg/mL | < 4 µg/mL | – | – | –
27 | CN(C)[C@@H]1C(O)=C(C(N)=O)C(=O)[C@@]2(O)C(O)=C3C(=O)c4c(O)ccc(CNCC(C)(C)C)c4C[C@H]3C[C@@H]12 | – | – | < 4 µg/mL | < 4 µg/mL | –
28 | CCCc1ccc(O)c2c1C[C@H]1C[C@H]3[C@H](N(C)C)C(O)=C(C(N)=O)C(=O)[C@@]3(O)C(O)=C1C2=O | – | – | < 4 µg/mL | < 4 µg/mL | –
29 | CN(C)c1cc(NCc2cccnc2)c(O)c2c1C[C@H]1C[C@H]3C(N(C)C)C(O)=C(C(N)=O)C(=O)[C@@]3(O)C(O)=C1C2=O (stereo partly shown) [FA] | > 4 µg/mL | > 4 µg/mL | – | – | –
30 | CN(C)[C@@H]1C(O)=C(C(N)=O)C(=O)[C@@]2(O)C(O)=C3C(=O)c4c(O)ccc(-c5ccc(C(=O)Cl)c6ccccc56)c4C[C@H]3C[C@@H]12 | – | – | < 4 µg/mL | > 4 µg/mL | –
31 | CN(C)Cc1ccc(-c2ccc(O)c3c2C[C@H]2C[C@H]4[C@@H](N(C)C)C(O)=C(C(N)=O)C(=O)[C@@]4(O)C(O)=C2C3=O)c2ccccc12 [K] | < 4 µg/mL | < 4 µg/mL | – | – | –
32 | CN(C)CCC(=O)c1ccc(O)c2c1C[C@H]1C[C@H]3[C@H](N(C)C)C(O)=C(C(N)=O)C(=O)[C@@]3(O)C(O)=C1C2=O [drawing 3401] | – | – | < 4 µg/mL | > 4 µg/mL | –
33 | CN(C)[C@@H]1C(O)=C(C(N)=O)C(=O)[C@@]2(O)C(O)=C3C(=O)c4c(O)ccc(-c5cncc(Br)c5)c4C[C@H]3C[C@@H]12 | – | – | < 4 µg/mL | < 4 µg/mL | –
34 | CN(C)c1cc(CN2CCCCCC2)c(O)c2c1C[C@H]1C[C@H]3[C@H](N(C)C)C(O)=C(C(N)=O)C(=O)[C@@]3(O)C(O)=C1C2=O | – | – | < 4 µg/mL | < 4 µg/mL | –
35 | CN(C)[C@@H]1C(O)=C(C(N)=O)C(=O)[C@@]2(O)C(O)=C3C(=O)c4c(O)ccc(-c5ccc(CNCCF)cc5)c4C[C@H]3C[C@@H]12 | – | – | < 4 µg/mL | – | MIC (E. coli mL308 225; [7]): < 4 µg/mL
36 | Cc1cc(-c2ccccn2)c2c(c1O)C(=O)C1=C(O)[C@]3(O)C(=O)C(C(N)=O)=C(O)[C@@H](N(C)C)[C@@H]3C[C@@H]1C2 | – | – | < 4 µg/mL | > 4 µg/mL | –
37 | CSCc1cc(-c2ccccn2)c2c(c1O)C(=O)C1=C(O)[C@]3(O)C(=O)C(C(N)=O)=C(O)[C@@H](N(C)C)[C@@H]3C[C@@H]1C2 | – | – | < 4 µg/mL | > 4 µg/mL | –
38 | CCN(CC)c1cc(CN2CCC(F)CC2)c(O)c2c1C[C@H]1C[C@H]3[C@H](N(C)C)C(O)=C(C(N)=O)C(=O)[C@@]3(O)C(O)=C1C2=O | – | – | < 4 µg/mL | < 4 µg/mL | –
39 | CN(C)[C@@H]1C(O)=C(C(N)=O)C(=O)[C@@]2(O)C(O)=C3C(=O)c4c(O)ccc(-c5cccc(C=O)c5)c4C[C@H]3C[C@@H]12 [BF] | < 4 µg/mL | < 4 µg/mL | – | – | –
40 | CCCCCc1ccc(O)c2c1C[C@H]1C[C@H]3[C@H](N(C)C)C(O)=C(C(N)=O)C(=O)[C@@]3(O)C(O)=C1C2=O [DG] | < 4 µg/mL | > 4 µg/mL | – | – | –
41 | CN(C)C1C(O)=C(C(N)=O)C(=O)[C@@]2(O)C(O)=C3C(=O)c4c(O)ccc(-c5ccc(CN6CCCC6)c6ccccc56)c4C[C@H]3C[C@@H]12 (stereo partly shown) [GH] | < 4 µg/mL | < 4 µg/mL | – | – | –
42 | CN(C)[C@@H]1C(O)=C(C(N)=O)C(=O)[C@@]2(O)C(O)=C3C(=O)c4c(O)ccc(-c5ccc(F)c(F)c5)c4C[C@H]3C[C@@H]12 | – | – | < 4 µg/mL | < 4 µg/mL | –
43 | CNC(=O)Oc1ccc(-c2ccc(O)c3c2C[C@H]2C[C@H]4[C@H](N(C)C)C(O)=C(C(N)=O)C(=O)[C@@]4(O)C(O)=C2C3=O)cc1 | – | – | – | – | MIC (S. aureus RN450; read-out: Antibiotic Activity Gram + (MIC)): < 4 µg/mL; MIC (E. coli mL308 225; [7]): < 4 µg/mL
44 | CCOP(=O)(OCC)C(Nc1cc(N(C)C)c2c(c1O)C(=O)C1=C(O)[C@]3(O)C(=O)C(C(N)=O)=C(O)[C@@H](N(C)C)[C@@H]3C[C@@H]1C2)c1ccc(OC)cc1 (stereo partly shown) [Z] | – | – | – | – | MIC (S. aureus RN450; read-out: Antibiotic Activity Gram +): < 4 µg/mL
45 | CCCC(C)(C)NC(=O)C1=C(O)[C@@H](N(C)C)[C@@H]2[C@@H](O)[C@H]3C(=C(O)[C@]2(O)C1=O)C(=O)c1c(O)cccc1[C@@H]3C [P] | < 4 µg/mL | – | – | – | –
